Where no end group is shown, it is not given here.

This is an account of results in patent US5932217A, “Peptides which inhibit adhesion between leukocytes and endothelial cells” (priority 1994, dated 1999).

One data set has as its system THP-1 cells. In words: Generation of Factor Xa by monocytes. It is filed as cell-based. The conditions noted are these: peptides 0.5 mM. The procedure: Factor Xa generation was determined by a modification of the method of Miletich et al. (1978), J. Biol. Chem. 253: 6908-6916. THP-1 cells (ATCC; 3×10^7 /ml) resuspended in RPMI 1640 (Bio Whittaker, Walkersville, Md.) were incubated with 100 μM ADP (Sigma), 2.5 mM CaCl2, 1 or 5 μg/ml Factor X (Hematologic Technologies Inc.) and 0.5 mM peptides at room temperature. After 20 minutes, 100 μl of the reaction mixture was transferred to 37° C. and supplemented with 100 μl of bovine factor VII- and Factor X-deficient plasma (Sigma). Coagulation was initiated by adding 100 μl of 25 mM CaCl2 and the clotting time was determined. Factor Xa procoagulant activity (ng/ml) was calculated by means of a standard curve constructed by serial concentrations of Factor Xa (Hematologic Technologies Inc.) from 50 to 250 ng/ml.

A further data set deals with T1, CD11b/CD18 (Homo sapiens, UniProt P05107+P11215).
T1 construct: endogenous in cells; host or cells: human monocyte-derived macrophages from buffy coats
T1 sequence (P05107 23-769, other chains not shown): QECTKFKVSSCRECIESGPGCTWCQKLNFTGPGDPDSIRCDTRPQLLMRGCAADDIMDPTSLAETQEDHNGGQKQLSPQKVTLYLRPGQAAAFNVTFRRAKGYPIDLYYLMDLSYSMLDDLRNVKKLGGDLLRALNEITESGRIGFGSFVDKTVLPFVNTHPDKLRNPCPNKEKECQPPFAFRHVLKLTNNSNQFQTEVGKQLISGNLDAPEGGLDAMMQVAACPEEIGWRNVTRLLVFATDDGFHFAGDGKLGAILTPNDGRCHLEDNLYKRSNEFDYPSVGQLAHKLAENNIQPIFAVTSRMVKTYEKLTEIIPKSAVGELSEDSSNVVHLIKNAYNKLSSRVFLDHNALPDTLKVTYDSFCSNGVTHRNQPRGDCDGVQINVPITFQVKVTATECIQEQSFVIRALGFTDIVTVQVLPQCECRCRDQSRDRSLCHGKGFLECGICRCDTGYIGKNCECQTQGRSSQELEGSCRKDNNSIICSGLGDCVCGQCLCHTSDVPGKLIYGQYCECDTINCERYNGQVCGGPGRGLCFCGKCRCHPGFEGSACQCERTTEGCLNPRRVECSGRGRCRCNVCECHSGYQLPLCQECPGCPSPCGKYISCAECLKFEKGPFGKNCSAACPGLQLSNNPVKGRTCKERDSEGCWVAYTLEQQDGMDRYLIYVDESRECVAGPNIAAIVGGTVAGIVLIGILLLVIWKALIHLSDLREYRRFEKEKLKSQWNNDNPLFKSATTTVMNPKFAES
In words: Downmodulation of CD11b/CD18 on macrophages. The data set is classed as cell-based. The conditions noted are these: wells coated with peptides 0.5 mM or mAb IB4 50 μg/ml. The procedure: Human monocytes were purified from buffy coats on Percoll gradients and cultured in 12.5% human serum in Teflon beakers. Macrophages were harvested from Teflon beakers after 6-8 days and suspended in HAP buffer. Terasaki wells were coated with 5 μl of peptides (0.5 mM) or anti-CD18 mAb IB4 (50 μg/ml). Control wells were coated with HAP. After 2 hours of incubation at RT, 5 μl of macrophages (5×10^5 /ml HAP) were added and allowed to spread for 45 mins. at 37° C. […] IgM-coated erythrocytes in buffer served as negative control. After washing, the number of erythrocytes bound per 100 leukocytes (adherence index) was quantitated visually under an inverted microscope.

Data set [1] concerns rats inoculated intracisternally with Haemophilus influenzae type b lipooligosaccharide. In words: Rat meningitis model (H. influenzae LOS). The data set is classed as in vivo. As to the method:
The experiments were performed according to established protocols (Wispelway et al., 1988, J. Clin. Invest., 82: 1339-1346). Purified Haemophilus influenzae type b strain DL42 lipooligosaccharide (LOS) was prepared for inoculation by sonication for 30 minutes, dilution to the desired concentration (20 ng/50 μl) in normal saline or PBS, and sonication for an additional 15 to 30 minutes just prior to use.
Briefly, anesthetized female Wistar rats were placed under a micromanipulator and inoculated intracisternally with a 25 gauge needle. After removal of 50 μl of CSF (without visible blood contamination), rats were inoculated intracisternally with 50 μl (20 ng) of LOS using a 1 ml syringe with a 25 gauge needle. Ten to fifteen minutes after inoculation with LOS, the rats were treated by intravenous administration of the test substance: a solution of an FHA peptide in PBS, a solution of a control peptide in PBS, or an equal volume of PBS alone.
Three hours after LOS inoculation, 5 μCi of ^125 I-radiolabelled albumin in 50 μl normal saline was administered intravenously. One hour later, CSF was collected via intracisternal puncture and blood samples were collected via intracardiac puncture. CSF leukocytosis was determined by manually counting white blood cells using a hemacytometer, and blood-brain barrier permeability was determined as the percent of radioactivity in whole blood that was present in the CSF. Blood samples were obtained immediately prior to inoculation, immediately prior to treatment, and at 4 hours post-inoculation for determination of peripheral white blood cell concentrations.

For data set [2] the following is noted: 50% rabbit plasma at 37° C.
Procedure: To determine the stability of the FHA II peptide, the unmodified or the acetylated-amidated peptide were incubated in 50% rabbit plasma at 37° C.
The subject of another data set is Human neutrophils. In words: Binding of 125I-Factor X to neutrophils. The settings on record: read-out: IC50 of inhibition of 125I-Factor X binding. As to the method:
Human Factor X (Sigma or Hematologic Technologies Inc.) was labeled with ^125 I using Iodogen (Pierce Chemical Co.) Human neutrophils were isolated from heparinized blood according to the manufacturer's specification using Neutrophil Isolation Medium (Cardinal Associates, Santa Fe, N.M.) and washed three times with 5 mM EDTA-phosphate-buffered saline (PBS), pH 7.2, at 4° C. To eliminate platelet contamination,neutrophils were incubated with autologous serum containing 5 mM EDTA for 30 mins. at 37° C., washed three times with ice-cold PBS, pH 7.2, and resuspended in RPMI 1640 tissue culture medium (Whittaker M. A. Bioproducts, Walkersville, Md.) at 4° C. Binding of ^125 I-Factor X to neutrophils was measured based on a method described by Altieri et al. (1991) Science 254: 1200-1202. Briefly, 200 μl of neutrophils (1.5×10^7 /ml) were supplemented with 17.5 μl of 50 mM CaCl2, stimulated with 3.5 μl of 100 μM NH2 -formyl-Met-Leu-Phe (Sigma), and mixed with 30 μl of 10.3 μg/ml ^125 I-Factor X and 100 μl of 1.75 mM of peptide. Buffer alone and a peptide of scrambled sequence served as controls in each of the 3 experiments. After incubation for 20 mins. at room temperature, neutrophil-bound ^125 I-Factor X was separated from unbound ^125 I-Factor X by centrifugation of 300 μl aliquots through 50 μl of a mixture of Hi phenyl silicone oil DC 550 and methyl silicone oil DC 200 5:1 (Nye Inc. Specialty Lubricants, New Bedford, Mass.) at 12,000×g for 2 mins. Aliquots of the supernatant (cell free ^125 I-Factor X) and the cell pellet (cell bound ^125 I-Factor X) were counted in a gamma-counter. Nonspecific binding (~50,000 cpm) was determined by adding a 100 fold excess of unlabeled Factor X, and subtracted from total radioactivity (~500,000 cpm for controls).

`CC(=O)N[C@@H](CC(C)C)C(=O)N[C@@H](CC(C)C)C(=O)N[C@H](C=O)CCCNC(=N)N` [Leupeptin, reference compound] had a Clotting time in the data set on THP-1 cells of 63.0 ± 4.0 s. For the same molecule, the “Factor Xa” value in the data set on THP-1 cells (from standard curve) was under 10.0 ng/mL. Take AADPHQGVLAQGDIIMDAKG [FHA Cc]: the “reduction of binding of C3bi-coated erythrocytes to macrophages” value (shortened to “reduction”) on CD11b/CD18 is given as “no significant effect”. In turn, “Ac-VEEDTKG-NH2 [scrambled ac/am FHA II, VEEDTKG, reference compound]” came in with a BBB permeability in data set [1] (Experiment #3, 600 nmol) of 7.74 ± 3.59%. Also, the Leukocytosis in data set [1] (Experiment #3, 600 nmol i.v., CSF 4 hours after LOS) is listed as 14,287 ± 10,199 cells/ml.

In the case of ETKEVDG [FHA II, ETKEVDG], the “time in which concentration decreased by half” value in data set [2] was 4 to 6 h. In the data set on Human neutrophils, the IC50 (usually the concentration needed to halve the response being measured) worked out at 10 µM. For GTLLLRNDALTENGTVTISA [FHA Cd], the “reduction” value at CD11b/CD18 is “no significant effect”.

In the case of “GYDTKQEDG [Factor X II, reference compound]”, the IC50 in the data set with Human neutrophils came out at 500 µM. Consider RADPHQGVLAQGDIIMDAKG [FHA Cb], for which the “reduction” value on CD11b/CD18 is “no significant effect”. For the molecule RGDPHQGVLAQGDIIMDAKG [FHA Ca], the “reduction” value at CD11b/CD18 is recorded as 61±7%. Further, in data set [1] (peripheral white blood cells), the neutropenia result is given as “No neutropenia was observed”.
